Measurements from patent publication US20190117994A1, “METHODS USEFUL FOR REMODELING MAXILLOFACIAL BONE USING LIGHT THERAPY AND A FUNCTIONAL APPLIANCE” (Biolux Research Ltd., priority 2010, published 2019).

Legend:
[1] = tested on: teeth and alveolar bone of an adult patient; test: Example 3: orthodontic treatment with daily light and oral vitamin D3 supplementation; type: in vivo; settings: passive (retention) phase, 2000 IU to 12,000 IU per day oral vitamin D3, light once per week at about 625 nm
Method: An adult patient is tested for Vitamin D3 blood serum levels at the same time as their routine orthodontic examination and records appointment. The patient's diagnosis is Class I mild crowding with 4 mm of crowding on the upper arch and 4 mm on the lower arch. An orthodontic treatment plan is formulated to include the installation of a fixed orthodontic appliance with some mild expansion of the upper and lower arches.
The patient self-administers oral oil-based vitamin D3 capsules of 6000 IU per day for 3 months to increase their vitamin D3 serum levels. Laboratory serum testing is optionally performed again after 3 months of vitamin D3 supplementation. The patient maintains or adjusts their oral dose of vitamin D3 based on their subsequent lab results.
Orthodontic treatment is started either after the 3 month period or anytime prior. The patient has conventional fixed orthodontic brackets, and bands placed on their teeth with an initial 0.016 inch NiTi wire tied in place with silcone ligatures. […]
At a passive state of orthodontic treatment, i.e., retention phase, a fixed retention orthodontic appliance is installed on the patient's teeth. […] The dosage can be determined based on vitamin D blood serum levels which can be measured periodically to determine dosing. […]

[2] = daily oral supplement of 2,000 IU to 6,000 IU in adults, within 3 months; cited from earlier work

| Compound | alveolar bone density around the teeth [1] | blood levels of vitamin D [2] |
| --- | --- | --- |
| C=C1CC[C@H](O)C/C1=C/C=C1\CCC[C@]2(C)[C@@H]([C@H](C)CCCC(C)C)CC[C@@H]12 [vitamin D3] | increased |  |
| vitamin D |  | 40 ng/mL |
